pIC50: −log10 of the molar value.
biological target: HIV-1 pNL4-3 integrase (Human immunodeficiency virus type 1 group M subtype B (isolate NY5) (HIV-1), UniProt P12497); assay: Determination of enzyme (HIV integrase) inhibitory activity; type: biochemical; settings: calculated from inhibition rate (fluorescence)
Method: The following explains evaluation methods of the HIV integrase inhibitory activity of the compound of the present invention.
A full-length gene sequence (Accession No.: M19921) of HIV-1 pNL4-3 integrase was inserted into restriction enzyme Nde I and Xho I sites of plasmid pET21a(+) (manufactured by Novagen) to construct an integrase expression vector pET21a-IN-Wild type.
Escherichia coli recombinant BL21(DE3) transformed with plasmid pET21a-IN-Wild type obtained in (i) was shake cultured at 30° C. in a liquid medium containing ampicillin. When the culture reached the logarithmic growth phase, isopropyl-β-D-thiogalactopyranoside was added to promote expression of integrase gene. The culture was continued for 5 hr to promote accumulation of the integrase protein. The recombinant E. coli was collected in pellets by centrifugal separation and preserved at −80° C.
This Escherichia coli was suspended in Lysis buffer (50 mM Tris-HCl (pH 7.6), 10 mM MgCl2, 5 mM DTT), and disrupted by repeating treatments of pressurization and depressurization, and insoluble fraction was collected by centrifugation at 4° C., 18,000 rpm for 60 min. This was suspended in Lysis buffer containing a protease inhibitor, […] and 10 mM CHAPS were added, and the mixture was stirred at 4° C. for 30 min. Water-soluble fraction was collected by centrifugation at 4° C., 9,000 rpm for 30 min. The obtained fraction was diluted with a column buffer (50 mM Tris-HCl (pH 7.6), 1 mM DTT, 10% Glycerol, 10 mM CHAPS) to 5-fold, and the mixture was applied to heparin column (HiPrep 16/10 Heparin FF column: manufactured by GE Healthcare Bio-Sciences). Using a column buffer containing 1M NaCl, a protein was eluted with 0-1M NaCl concentration gradient, and an eluted fraction containing an integrase protein was collected. The obtained fraction was diluted 5-fold with a column buffer (50 mM Tris-HCl (pH 7.6), 1 mM DTT, 10% Glycerol, 10 mM CHAPS), and the mixture was applied to cation exchange column (Mono-S column: manufactured by GE Healthcare Bio-Sciences). Using a column buffer containing 1M NaCl, a protein was eluted with 0-1M NaCl concentration gradient, and an eluted fraction containing an integrase protein was collected. The obtained fractions of the integrase protein were collected, and preserved at −80° C.
The following DNA synthesized by FASMAC was dissolved in TE buffer (10 mM Tris-hydrochloric acid (pH 8.0), 1 mM EDTA) and mixed with donor DNA, target DNA, and each complementary strand (+ and − strands) to 1 μM. The mixture was heated at 95° C. for 5 min, 80° C. for 10 min, 70° C. for 10 min, 60° C. for 10 min, 50° C. for 10 min and 40° C. for 10 min and kept at 25° C. to give a double stranded DNA, which was used for the test.
Donor DNA (+strand having biotin attached to the 5′ terminal)
Target DNA (+, − strands both having digoxigenin attached to the 3′ terminal)
The donor DNA was diluted with TE buffer to 20 nM, of which 50 μL was added to each well of streptavidin-coated black plate (manufactured by PIAS Corporation) and allowed to adsorb at 37° C. for 20 min. The plate was washed with phosphate buffer (Dulbecco's PBS, Sanko Junyaku Co., Ltd.) containing 0.1% Tween 20 and phosphate buffer. Then, an enzyme reaction mixture (70 μL), a test substance (10 μL) diluted with the enzyme reaction mixture and 0.75 μM integrase protein (10 μL) were added to each well and the mixture was reacted at 37° C. for 60 min. composition of enzyme reaction mixture: 30 mM MOPS (3-morpholinopropanesulfonic acid), 5 mM magnesium chloride, 3 mM DTT (dithiothreitol), 0.1 mg/mL BSA (bovine serum albumin), 5% glycerol, 10% DMSO (dimethyl sulfoxide), 0.01% Tween 20.
Then, 25 nM target DNA (10 μL) was added, and the mixture was reacted at 37° C. for 20 min and washed with phosphate buffer containing 0.1% Tween 20 to stop the reaction. […]

Compound | pIC50
COCC1(C)CN(C(C)C)C(=O)c2c(O)c(=O)c(-c3ncc(Cc4ccc(F)cc4F)s3)cn21 (stereo not drawn) [Example 121] | 7.80
COCCOCC1(C)CN(C(C)C)C(=O)c2c(O)c(=O)c(-c3ncc(Cc4ccc(F)cc4F)s3)cn21 (stereo not drawn) [Example 122] | 7.72
COCCOC[C@H]1CN(CC(C)(C)C)C(=O)c2c(O)c(=O)c(-c3nnc(Cc4ccc(F)cc4)s3)cn21 [Example 123] | 7.57
COCCOC[C@H]1CN(CC(C)(C)C)C(=O)c2c(O)c(=O)c(-c3nnc(Cc4ccc(F)cc4F)s3)cn21 [Example 124] | 7.82
CCN1C[C@H](COCCOC)n2cc(-c3nnc(Cc4ccc(F)cc4F)s3)c(=O)c(O)c2C1=O [Example 125] | 7.96
COC[C@@H]1Cn2cc(-c3nnc(Cc4ccc(F)cc4F)s3)c(=O)c(O)c2C(=O)N1CC1CC1 [Example 126] | 8.14
CCN1C[C@@H](COCCOC)n2cc(-c3nnc(Cc4ccc(F)cc4F)s3)c(=O)c(O)c2C1=O [Example 127] | 7.85
CCN1C[C@@H](COCCOC)n2cc(-c3nnc(Cc4ccc(F)cc4)s3)c(=O)c(O)c2C1=O [Example 128] | 7.72
COCCOC[C@@H]1Cn2cc(-c3nnc(Cc4ccc(F)cc4F)s3)c(=O)c(O)c2C(=O)N1CC(C)(C)C [Example 129] | 7.92
CCN1C(=O)c2c(O)c(=O)c(-c3nnc(Cc4ccc(F)cc4F)s3)cn2C[C@@H]1COCCOC [Example 130] | 7.89
COC[C@H]1CN(C(C)(C)C)C(=O)c2c(O)c(=O)c(-c3nnc(Cc4ccc(F)cc4F)s3)cn21 [Example 131] | 7.89
CC(C)N1C[C@@H](C)n2cc(-c3nnc(Cc4ccc(F)cc4F)s3)c(=O)c(O)c2C1=O [Example 132] | 8.04
CC(C)N1C(=O)c2c(O)c(=O)c(-c3nnc(Cc4ccc(F)cc4F)s3)cn2C[C@H]1CO [Example 133] | 8.13
COCCOC[C@H]1CN(C(C)C)C(=O)c2c(O)c(=O)c(-c3nnc(Cc4ccc(F)cc4F)s3)cn21 [Example 134] | 7.80
CC[C@H](C)N1C[C@H](COC)n2cc(-c3nnc(Cc4ccc(F)cc4F)s3)c(=O)c(O)c2C1=O [Example 135] | 7.92
COC[C@H]1CN([C@@H](C)C(C)C)C(=O)c2c(O)c(=O)c(-c3nnc(Cc4ccc(F)cc4F)s3)cn21 [Example 136] | 7.96
CC(=O)NC[C@@H]1Cn2cc(-c3nnc(Cc4ccc(F)cc4F)s3)c(=O)c(O)c2C(=O)N1C(C)C [Example 137] | 8.07
CC(C)N1C(=O)c2c(O)c(=O)c(-c3nnc(Cc4ccc(F)cc4F)s3)cn2C[C@H]1CNC(=O)C(C)(C)C [Example 138] | 7.96
CC(=O)N(C)CC1(C)CN(C(C)C)C(=O)c2c(O)c(=O)c(-c3ncc(Cc4ccc(F)cc4F)s3)cn21 (stereo not drawn) [Example 139] | 7.92
CC(=O)NC[C@H]1Cn2cc(-c3nnc(Cc4ccc(F)cc4F)s3)c(=O)c(O)c2C(=O)N1C(C)C [Example 140] | 8.24
CCOC[C@H]1CN(C(C)C)C(=O)c2c(O)c(=O)c(-c3ncc(Cc4ccc(F)cc4)s3)cn21 [Example 141] | 8.10
CCOC[C@H]1CN(C(C)C)C(=O)c2c(O)c(=O)c(-c3nnc(Cc4ccc(F)cc4F)s3)cn21 [Example 142] | 8.19
CCOCCOC[C@H]1CN(C(C)C)C(=O)c2c(O)c(=O)c(-c3nnc(Cc4ccc(F)cc4F)s3)cn21 [Example 143] | 8.16
COC[C@H]1CN(C(C)C)C(=O)c2c(O)c(=O)c(-c3nnc(Cc4ccc(F)c(F)c4)s3)cn21 [Example 144] | 8.11
CCC(C)N1C(=O)c2c(O)c(=O)c(-c3nnc(Cc4ccc(F)cc4F)s3)cn2C[C@H]1COC (stereo partly drawn) [Example 145] | 8.25
CCC(C)N1C(=O)c2c(O)c(=O)c(-c3nnc(Cc4ccc(F)cc4F)s3)cn2C[C@H]1COC (stereo partly drawn) [Example 146] | 8.23

Compound | pIC50
CC[C@@H](C)N1C[C@H](COC)n2cc(-c3nnc(Cc4ccc(F)cc4F)s3)c(=O)c(O)c2C1=O [Example 147] | 8.08
COC[C@H]1CN([C@H](C)C(C)C)C(=O)c2c(O)c(=O)c(-c3nnc(Cc4ccc(F)cc4F)s3)cn21 [Example 148] | 8.01
CC(C)N1C[C@H](C)n2cc(-c3nnc(Cc4ccc(F)cc4F)s3)c(=O)c(O)c2C1=O [Example 149] | 8.23
COC[C@@H]1Cn2cc(-c3nnc(Cc4ccc(F)c(F)c4)s3)c(=O)c(O)c2C(=O)N1C(C)C [Example 150] | 8.21
CC(=O)CC1CN(C(C)C)C(=O)c2c(O)c(=O)c(-c3ncc(Cc4ccc(F)cc4F)s3)cn21 (stereo not drawn) [Example 151] | 8.27
CC(C)N1CC(C)(C(=O)N(C)C)n2cc(-c3ncc(Cc4ccc(F)cc4F)s3)c(=O)c(O)c2C1=O (stereo not drawn) [Example 152] | 8.23
CCNC(=O)C1(C)CN(C)C(=O)c2c(O)c(=O)c(-c3ncc(Cc4ccc(F)cc4F)s3)cn21 (stereo not drawn) [Example 153] | 8.24
CC(C)N1C(=O)c2c(O)c(=O)c(-c3nnc(Cc4ccc(F)cc4F)s3)cn2C[C@H]1CN(C)S(C)(=O)=O [Example 154] | 8.14
COCCOC[C@H]1CN(C(C)C)C(=O)c2c(O)c(=O)c(-c3nnc(Cc4ccc(F)c(F)c4)s3)cn21 [Example 155] | 8.00
CC(C)N1C(=O)c2c(O)c(=O)c(-c3nnc(Cc4ccc(F)cc4F)s3)cn2C[C@H]1C [Example 156] | 8.34
CC(C)N1CC(C)(C(=O)N(C)C)n2cc(-c3nnc(Cc4ccc(F)c(F)c4)s3)c(=O)c(O)c2C1=O (stereo not drawn) [Example 157] | 7.54
CC(C)N1C(=O)c2c(O)c(=O)c(-c3nnc(Cc4ccc(F)cc4F)s3)cn2C[C@H]1CNS(C)(=O)=O [Example 158] | 8.27
CC(C)C(=O)N(C)C[C@@H]1Cn2cc(-c3nnc(Cc4ccc(F)cc4F)s3)c(=O)c(O)c2C(=O)N1C(C)C [Example 159] | 8.18
CNC(=O)C1CN(C)C(=O)c2c(O)c(=O)c(-c3ncc(Cc4ccc(F)cc4F)s3)cn21 (stereo not drawn) [Example 160] | 8.21
CCN(C)C(=O)C1(C)CN(C)C(=O)c2c(O)c(=O)c(-c3ncc(Cc4ccc(F)cc4F)s3)cn21 (stereo not drawn) [Example 161] | 8.11
CCNC(=O)C1(C)CN(CC)C(=O)c2c(O)c(=O)c(-c3ncc(Cc4ccc(F)cc4F)s3)cn21 (stereo not drawn) [Example 162] | 8.15
CC(=O)N(C)C[C@@H]1Cn2cc(-c3nnc(Cc4ccc(F)cc4)s3)c(=O)c(O)c2C(=O)N1C(C)C [Example 163] | 8.11
CN(C)C(=O)CC1CN(C2CC2)C(=O)c2c(O)c(=O)c(-c3ncc(Cc4ccc(F)cc4F)s3)cn21 (stereo not drawn) [Example 164] | 8.19
CCNC(=O)CC1CN(C2CC2)C(=O)c2c(O)c(=O)c(-c3ncc(Cc4ccc(F)cc4F)s3)cn21 (stereo not drawn) [Example 165] | 8.13
CC[C@H](C)N1C[C@@H](COC)n2cc(-c3nnc(Cc4ccc(F)cc4)s3)c(=O)c(O)c2C1=O [Example 166] | 7.92
CC[C@@H](C)N1C[C@@H](COC)n2cc(-c3nnc(Cc4ccc(F)cc4)s3)c(=O)c(O)c2C1=O [Example 167] | 8.00
COC[C@@H]1Cn2cc(-c3ncc(Cc4ccc(F)cc4F)s3)c(=O)c(O)c2C(=O)N1C(C)C [Example 168] | 8.24
CC(C)N1C[C@](C)(C(=O)N(C)C)n2cc(-c3nnc(Cc4ccc(F)cc4F)s3)c(=O)c(O)c2C1=O [Example 169] | 7.92
CC(C)N1C[C@](C)(C(=O)N2CCCC2)n2cc(-c3nnc(Cc4ccc(F)cc4F)s3)c(=O)c(O)c2C1=O [Example 170] | 7.92
CC(C)N1C[C@@](C)(C(=O)N(C)C)n2cc(-c3nnc(Cc4ccc(F)cc4F)s3)c(=O)c(O)c2C1=O [Example 171] | 7.80

From patent US10065950B2, “Substituted thiazoles as HIV integrase inhibitors” (Japan Tobacco Inc., priority 2010, dated 2018)
